Key:
GDH-NL-CBM2 = tested on: T1, GDH-NL-CBM2; assay: PMS/DCIP spectrophotometric assay at […] nm, Michaelis-Menten non-linear fit; assay type: biochemical, Aspergillus niger; conditions: 0.1 M phosphate buffer pH 6.0, 37 °C; PMS and DCIP as electron acceptors; free enzyme
T1 construct: gene FAD-GDH; secreted from Pichia pastoris GS115, Ni-purified

GDH (wild-type FAD-GDH) = tested on: T2, GDH (wild-type FAD-GDH); assay: as above; assay type: biochemical, Aspergillus niger; conditions: 0.1 M phosphate buffer pH 6.0, 37 °C; PMS and DCIP as electron acceptors; free enzyme
T2 construct: signal peptide (first 63 bp, 21 residues) removed; C-terminal His tag kept; secreted from Pichia pastoris GS115 (pPIC9k), glycosylated; Ni-purified

OC[C@H]1OC(O)[C@H](O)[C@@H](O)[C@@H]1O (some centres unmarked) [glucose]
Km (GDH-NL-CBM2): 11.8 mM
Km (GDH (wild-type FAD-GDH)): 12.3 mM

— PMC8197230, “Orientated Immobilization of FAD-Dependent Glucose Dehydrogenase on Electrode by Carbohydrate-Binding Module Fusion for Efficient Glucose Assay” (International Journal of Molecular Sciences, 2021)
